These results are taken from patent US12679827B2, “Pyrimidine compounds and their pharmaceutical uses” (National Health Research Institutes, priority 2020, dated 2026).

Test [1] has as its system NCI-H446. Put plainly: Small-cell-lung cancer cell proliferation inhibition assay (PrestoBlue), NCI-H446. It counts as cell-based. To be noted: Homo sapiens, cMYC amplified SCLC cells, 72 hours. The procedure:
(§1) Small cell lung cancer cells NCI-H82 (ATCC HTB-175, cMYC amplified), NCI-H446 (ATCC® HTB-171, cMYC amplified), and NCI-H69 (ATCC® HTB-119, MYCN amplified) were seeded at the density of 5000-10000 cells per well in 96-well plates. After 24 hours, the cancer cells were treated with each compound at various concentrations (0-10 μM) and then incubated for another 72 hours. IC50 values were computed based on duplicated 8-point titration.

Test [2] concerns the target T1, human Aurora A (amino acids 123-401) (Homo sapiens, UniProt O14965).
T1 construct: human Aurora A (amino acids 123-401) was expressed in Sf9 insect cells; GST; made in house; host or cells: Sf9 insect cells
T1 sequence (O14965 123-401): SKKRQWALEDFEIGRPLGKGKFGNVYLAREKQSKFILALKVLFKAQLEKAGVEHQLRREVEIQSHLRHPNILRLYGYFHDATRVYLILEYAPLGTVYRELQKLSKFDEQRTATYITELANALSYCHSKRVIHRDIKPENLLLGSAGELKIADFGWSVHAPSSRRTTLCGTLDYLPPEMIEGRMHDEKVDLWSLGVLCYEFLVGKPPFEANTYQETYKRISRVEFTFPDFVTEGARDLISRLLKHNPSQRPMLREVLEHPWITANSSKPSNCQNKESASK
The test can be described thus: Kinase-Glo Luminescent Kinase assay, in vitro inhibition of Aurora A kinase activity. It counts as biochemical. The note with it: recombinant GST-tagged Aurora A, 5.0 μM ATP, 37° C., 120 minutes. As for the experimental part:
Recombinant glutathione S-transferase (GST)-tagged N-terminal truncated human Aurora A (amino acids 123-401) was expressed in Sf9 insect cells and then purified by glutathione affinity chromatography to afford recombinant Aurora A. Recombinant Aurora A (150 ng) was reacted with each test compound (100 nM) in 50 μL of 50 mM Tris-HCl pH 7.4, 10 mM NaCl, 10 mM MgCl2, 0.01% bovine serum albumin, 5.0 μM ATP, 1 mM dithiothreitol, 15 μM tetra(-LRRASLG) peptide at 37° C. for 120 minutes. Then, to the reaction was added 50 μL of Kinase-Glo Plus Reagent. The resulting mixture was incubated at 25° C. for 20 minutes. A 70 μL aliquot of the mixture was transferred to a black microliter plate. Luminescence was measured using a Wallac Vector 1420 multilabel counter (PerkinElmer, USA).
On the technique in general: Kinase-Glo reads ATP consumption through a luciferase reaction.

Test [3] has as its system NCI-H82. The test can be described thus: Small-cell-lung cancer cell proliferation inhibition assay (PrestoBlue), NCI-H82. The note with it: Homo sapiens, cMYC amplified SCLC cells, 72 hours. It counts as cell-based. The procedure: as §1

In general, IC50 refers to the concentration at which inhibition is half-maximal.

`CCN1CCN(c2cc(Nc3ncc(C#N)s3)nc(N[C@H]3CCN(C(=O)c4ccc(Cl)cc4F)C3)n2)CC1` [Compound 1]: the half-maximal inhibitory concentration (IC50) was < 1000 nM in test [1], < 100 nM in test [2] and < 1000 nM in test [3]. `CCOC(=O)c1cnc(Nc2cc(N3CCN(C)CC3)nc(N[C@H]3CCN(C(=O)c4ccc(Cl)cc4F)C3)n2)s1` [Compound 2]: the half-inhibitory concentration (IC50) in test [2] is < 100 nM; in test [3], < 1000 nM.

With `Cc1cc(Nc2cc(N3CC(N(C)C)C3)nc(N[C@H]3CCN(C(=O)c4ccc(Cl)cc4F)C3)n2)n[nH]1` [Compound 8], the IC50 in test [1] is < 1000 nM; in test [2] it was < 100 nM; in test [3], < 1000 nM.

For `CC(=O)N1CCN(c2cc(Nc3cc(C)[nH]n3)nc(N[C@H]3CCN(C(=O)c4ccc(Cl)cc4F)C3)n2)CC1` [Compound 12], the values for the IC50 in test [1], in test [2] and in test [3] were < 1000 nM, < 100 nM and < 1000 nM, respectively. Take `COCCN(C)c1cc(Nc2cc(C)[nH]n2)nc(N[C@H]2CCN(C(=O)c3ccc(Cl)cc3F)C2)n1` [Compound 17]: the IC50 in test [1] is < 1000 nM; in test [2], < 100 nM; in test [3], < 1000 nM. As to `Cc1cc(Nc2cc(N3CC[C@@H](N(C)C)C3)nc(N[C@H]3CCN(C(=O)c4ccc(Cl)cc4F)C3)n2)n[nH]1` [Compound 18], the IC50 in test [1] and in test [3] was < 1000 nM in each case. Consider `COC1CN(c2cc(Nc3cc(C)[nH]n3)nc(N[C@H]3CCN(C(=O)c4ccc(Cl)cc4F)C3)n2)C1` [Compound 19], for which the values for the IC50 in test [1], in test [2] and in test [3] were < 1000 nM, < 100 nM and < 1000 nM, respectively. Consider `Cc1cc(Nc2cc(N3CC[C@@H](N(C)C)C3)nc(N[C@H]3CCN(C(=O)c4cccc(Cl)c4F)C3)n2)n[nH]1` [Compound 20], for which the concentration for half-maximal inhibition (IC50) in test [2] was < 100 nM. In the case of `Cc1cc(Nc2cc(N3CC[C@H](N(C)C)C3)nc(N[C@H]3CCN(C(=O)c4cccc(Cl)c4F)C3)n2)n[nH]1` [Compound 22], the figures for the IC50 in test [1], in test [2] and in test [3] were < 1000 nM, < 100 nM and < 1000 nM, respectively.

For the compound `COC[C@@H]1CCCN1c1cc(Nc2cc(C)[nH]n2)nc(N[C@H]2CCN(C(=O)c3cccc(Cl)c3F)C2)n1` [Compound 23], the half-inhibitory concentration (IC50) in test [2] is < 100 nM. Same read-out and setting: the result for `COC[C@H]1CCCN1c1cc(Nc2cc(C)[nH]n2)nc(N[C@H]2CCN(C(=O)c3cccc(Cl)c3F)C2)n1` [Compound 24] reads < 100 nM. In the case of `Cc1cc(Nc2cc(N3CC(N(C)C)C3)nc(N[C@H]3CCN(C(=O)c4cccc(Cl)c4F)C3)n2)n[nH]1` [Compound 25], the values for the half-maximal inhibitory concentration (IC50) in test [1], in test [2] and in test [3] were < 1000 nM, < 100 nM and < 1000 nM, respectively. `Cc1cc(Nc2cc(N3CCNCC3)nc(N[C@H]3CCN(C(=O)c4cccc(Cl)c4F)C3)n2)n[nH]1` [Compound 26]: the 50% inhibitory concentration (IC50) in test [1] is < 1000 nM; in test [2] it was < 100 nM; in test [3], < 1000 nM. With `Cc1cc(Nc2cc(N(C)CCN(C)C)nc(N[C@H]3CCN(C(=O)c4cccc(Cl)c4F)C3)n2)n[nH]1` [Compound 27], the IC50 in test [1] was < 1000 nM; in test [2], < 100 nM; in test [3], < 1000 nM.

Take `COC1CCN(c2cc(Nc3cc(C)[nH]n3)nc(N[C@H]3CCN(C(=O)c4cccc(Cl)c4F)C3)n2)CC1` [Compound 28]: the IC50 in test [2] is < 100 nM.

Consider `CCN1CCN(c2cc(Nc3cc(C)[nH]n3)nc(N[C@H]3CCN(C(=O)c4ccc(Cl)cc4)C3)n2)CC1` [Compound 29], for which the IC50 in test [2] was < 100 nM.

Consider `Cc1cc(Nc2cc(N3CCN(C)CC3)nc(N[C@H]3CCN(Cc4cccc(Cl)c4F)C3)n2)n[nH]1` [Compound 30], for which, in test [2], the IC50 was < 100 nM.

As for `CCN1CCN(c2cc(Nc3cc(C)[nH]n3)nc(N[C@H]3CCN(Cc4cccc(Cl)c4F)C3)n2)CC1` [Compound 31], the figures for the half-inhibitory concentration (IC50) in test [1], in test [2] and in test [3] were < 1000 nM, < 100 nM and < 1000 nM, respectively. Turning to `CCN1CCN(c2cc(Nc3cc(C)[nH]n3)nc(N[C@H]3CCN(C(=O)c4ccc(Cl)cc4Cl)C3)n2)CC1` [Compound 32], the results for the IC50 in test [1], in test [2] and in test [3] were < 1000 nM, < 100 nM and < 1000 nM, respectively. As to `CCN1CCN(c2cc(Nc3cc(C)[nH]n3)nc(N[C@H]3CCN(C(=O)c4ccc(Cl)c(C)c4)C3)n2)CC1` [Compound 33], the half-maximal inhibitory concentration (IC50) in test [2] is < 100 nM.

With `CCN1CCN(c2cc(Nc3cc(C)[nH]n3)nc(N[C@H]3CCN(C(=O)c4ccc(Cl)cc4C)C3)n2)CC1` [Compound 34], the IC50 in test [2] is < 100 nM. In the case of `Cc1cc(Nc2cc(N3CCN(C)CC3)nc(N[C@H]3CCN(C(=O)c4cccc(Cl)c4F)C3)n2)n[nH]1` [Compound 35], the figures for the IC50 in test [1], in test [2] and in test [3] were < 1000 nM, < 100 nM and < 1000 nM, respectively.

As for `Cc1cc(Nc2cc(N3CCN(C)CC3)nc(N[C@H]3CCN(C(=O)c4ccc(Cl)cc4F)C3)n2)n[nH]1` [Compound 36], the IC50 in test [1] was < 1000 nM; in test [2] it was < 100 nM; in test [3] it was < 1000 nM. On to `CCN1CCN(c2cc(Nc3cc(C)[nH]n3)nc(NC3CCN(C(=O)c4cccc(Cl)c4F)C3)n2)CC1` (centres unmarked) [Compound 58], for which the IC50 in test [2] was < 100 nM. As for `CCN1CCN(c2cc(Nc3cc(C)nn3C(C)=O)nc(N[C@H]3CCN(C(=O)c4ccc(Cl)cc4F)C3)n2)CC1` [Compound 70], the half-inhibitory concentration (IC50) in test [1] and in test [3] was < 1000 nM in each case.

With `COCCN(C)c1cc(Nc2cc(C)[nH]n2)nc(NC2CCN(C(=O)c3cccc(Cl)c3F)CC2)n1` [Compound 98], the IC50 in test [1] and in test [3] was < 1000 nM throughout. As for `CCN1CCN(c2cc(Nc3cc(C)[nH]n3)nc(N(CC)C3CCN(C(=O)c4cccc(Cl)c4F)CC3)n2)CC1` [Compound 109], in test [2], the IC50 was < 100 nM. On to `Cc1cc(Nc2ccnc(NC3CCN(Cc4cccc(Cl)c4F)CC3)n2)n[nH]1` [Compound 110], for which, in test [2], the 50% inhibitory concentration (IC50) is < 100 nM. Take `Cc1cc(Nc2cc(C)[nH]n2)nc(N(C)C2CCN(Cc3cccc(Cl)c3F)CC2)n1` [Compound 111]: in test [2], the half-maximal inhibitory concentration (IC50) was < 100 nM. On the same count and under the same terms, the result for `Cc1cc(Nc2ccnc(NC3CCN(C(=O)c4cccc(F)c4F)CC3)n2)n[nH]1` [Compound 113] reads < 100 nM; that for `Cc1cc(Nc2cc(C)[nH]n2)nc(NC2CCN(C(=O)c3cccc(F)c3F)CC2)n1` [Compound 114], < 100 nM.

`Cc1cc(Nc2nccs2)nc(N(C)C2CCN(Cc3cccc(Cl)c3F)CC2)n1` [Compound 115]: in test [2], the IC50 was < 100 nM. On the same count and under the same terms, for `Cc1cc(Nc2nccs2)nc(NC2CCN(Cc3cccc(Cl)c3F)CC2)n1` [Compound 116] the value was < 100 nM; for `Cc1cc(Nc2ccnc(NC3CCN(C(=O)c4cccc(Cl)c4Cl)CC3)n2)n[nH]1` [Compound 118], < 100 nM. Still for that read-out and setting: the result for `Cc1cc(Nc2cc(C)[nH]n2)nc(NC2CCN(Cc3cccc(Cl)c3F)CC2)n1` [Compound 119] reads < 100 nM; that for `Cc1cc(Nc2cc(C)[nH]n2)nc(NC2CCN(C(=O)c3cccc(Cl)c3F)CC2)n1` [Compound 120], < 100 nM. Same read-out and setting: the result for `Cc1cc(Nc2cc(C)[nH]n2)nc(NC2CCN(C(=O)c3cccc(Cl)c3Cl)CC2)n1` [Compound 121] reads < 100 nM. For `CCN1CCN(c2cc(Nc3cc(C)nn3C(=O)C(C)C)nc(NC3CCN(C(=O)c4cccc(Cl)c4F)CC3)n2)CC1` [Compound 124], the IC50 in test [1] and in test [3] was < 1000 nM in each case. For the compound `CCCC(=O)n1nc(C)cc1Nc1cc(N2CCN(CC)CC2)nc(NC2CCN(C(=O)c3cccc(Cl)c3F)CC2)n1` [Compound 125], the IC50 in test [1] and in test [3] was < 1000 nM in each case.
